Values of other authors as cited in US20120061267A1, “MediTowel Anti-Fungal Wipe” (priority 2010, published 2012).
Structures can show the parent of a compound that is named as a salt.

Key:
[1] = system: Trichophyton mentagrophytes; conditions: at a low concentration
[2] = system: squalene epoxidase; conditions: in the cells of fungi

Q: What does the source list for `CN(C/C=C/C#CC(C)(C)C)Cc1cccc2ccccc12` [Terbinafine hydrochloride]?
A: fungicidal effect on sterilizing germinated conidium [1]: fungicidal effect; inhibition of squalene epoxidase [2]: selectively inhibits
